Ka and stoichiometry N data for 6 compounds are collected here from paper PMC5889867, “Inhibition of Protein Aggregation by Several Antioxidants” (Oxidative Medicine and Cellular Longevity, 2018).

Values joined by “and” are separate entries in the source; they are usually repeats but may differ in a detail not shown here. Equal entries are not always repeated.

For the first assay, the target named is T1, human stefin B (stB wt) (Homo sapiens, UniProt P04080, C3S).
T1 construct: gene CSTB; Cys3 replaced by Ser
T1 sequence (P04080 1-98 C3S): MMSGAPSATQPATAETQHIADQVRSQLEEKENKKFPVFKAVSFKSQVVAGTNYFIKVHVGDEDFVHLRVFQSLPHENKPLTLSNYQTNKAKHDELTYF
The experiment in a line: intrinsic Tyr fluorescence quenching, modified Stern-Volmer. The assay is classed as binding. To be noted: 34 uM protein, 25 C, excitation 277 nm.
In the case of `O=c1c(O)c(-c2ccc(O)c(O)c2)oc2cc(O)cc(O)c12` [quercetin, 2-(3,4-dihydroxyphenyl)-3,5,7-trihydroxy-4H-chromen-4-one], the Ka entry is reported as “each compound also acts as a quencher of tyrosine fluorescence”.

For the compound `COc1cc(/C=C/C(=O)CC(=O)/C=C/c2ccc(O)c(OC)c2)ccc1O` [curcumin, (1E,6E)-1,7-bis(4-hydroxy-3-methoxyphenyl)hepta-1,6-diene-3,5-dione], the Ka entry is reported as “binding constants show that curcumin binds more tightly than do other antioxidants studied here”.

For the compound `Oc1ccc(/C=C/c2cc(O)cc(O)c2)cc1` [resveratrol, 3,5,40-trihydroxystilbene], the Ka result is “each compound also acts as a quencher of tyrosine fluorescence”.

As to `O=C1O[C@H]([C@@H](O)CO)C(O)=C1O` [vitamin C, (2R)-2-[(1S)-1,2-dihydroxyethyl]-3,4-dihydroxy-2H-furan-5-one], the Ka entry was “each compound also acts as a quencher of tyrosine fluorescence”.

For the compound `CC(=O)N[C@@H](CS)C(=O)O` [NAC, (2R)-2-acetamido-3-sulfanyl propanoic acid], the Ka result is “each compound also acts as a quencher of tyrosine fluorescence”.

A further assay deals with human stefin B (stB wt), recombinant, Cys 3 replaced with Ser (human) (UniProt P04080). The experiment in a line: cross-linking; stB wt fibrillation mixture (34 uM protein, 0.015 M acetate buffer, 0.15 M NaCl, pH 4.8, 10% v/v TFE, room temperature) aged 24 hours, with or without antioxidants (NAC, vit C and others); cross-linked with 50-fold molar excess of BS3, then SDS-PAGE.
Conditions: not given
The term stoichiometry N denotes the number of molecules, sites or subunits per partner or assembly. “human stefin B (stB wt), recombinant, Cys 3 replaced with Ser (from UniProt P04080 8-98) (natural protein)”: the stoichiometry N is 2 and > 4.
